Test results as given in patent USRE47302E1 (ONYX THERAPEUTICS INC., priority 2013, dated 2019).
Converted amounts (≈) assume the structure as drawn. Like-named read-outs stand apart in the source and are kept apart here.

How the values were obtained:
[1] = molecular target: T1, proteasome subunit β5 (beta5) (Homo sapiens, UniProt P28074); assay: Proteasome active-site ELISA (ProCISE), beta5, MOLT-4 lysate; assay type: biochemical; conditions: MOLT4 lysate, human, 1 h continuous treatment, 25° C.
T1 construct: Lysate from the human acute lymphoblastic leukemia cell line, MOLT-4; endogenous in cells; host or cells: MOLT-4
Summary of the method: (§1)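 MOLT-4 cell lysate treated 1 h at 25 °C with compound; probe-bound subunits denatured, pulled down on streptavidin beads and detected with subunit-specific antibodies plus HRP chemiluminescence.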

[2] = molecular target: T2, immunoproteasome subunit LMP7 (Homo sapiens, UniProt P28062); assay: Proteasome active-site ELISA (ProCISE), LMP7, MOLT-4 lysate; assay type: biochemical
T2 construct: Lysate from the human acute lymphoblastic leukemia cell line, MOLT-4; endogenous in cells; host or cells: MOLT-4
Summary of the method: as §1

Solubility pH 7 = conditions: pH 7, aqueous buffer
[3] = MOLT4 lysate, 1 h continuous treatment, 25° C.
[4] = read-out: ProCISE beta5 MOLT4 lysate Hu 1 h CONT: IC50
[5] = read-out: ProCISE LMP7 MOLT4 lysate Hu 1 h CONT: IC50, 1 h continuous treatment, 25° C.

COc1ccc(C[C@H](NC(=O)[C@@H](C)NC(=O)[C@H]2CC[C@@H](O)CC2)C(=O)N[C@@H](CC2=CCCCC2)C(=O)[C@@]2(C)CO2)cc1 [Compound C-1097, (1s,4S)-N-((R)-1-(((S)-1-(((S)-3-(cyclohex-1-en-1-yl)-1-((R)-2-methyloxiran-2-yl)-1-oxopropan-2-yl)amino)-3-(4-methoxyphenyl)-1-oxopropan-2-yl)amino)-1-oxopropan-2-yl)-4-hydroxycyclohexanecarboxamide] gave an IC50 [1] of 322 nM, an IC50 [2, 3] of 21.6 nM and a solubility (Solubility pH 7) of 256 µg/mL (≈ 0.439 mM).

C[C@@H](NC(=O)[C@H]1CC[C@H](O)CC1)C(=O)N[C@@H](Cc1ccc(C#N)cc1)C(=O)N[C@@H](CC1CCCC1)C(=O)[C@@]1(C)CO1 [Compound C-1103, (1r,4R)-N-((R)-1-(((S)-3-(4-cyanophenyl)-1-(((S)-3-cyclopentyl-1-((R)-2-methyloxiran-2-yl)-1-oxopropan-2-yl)amino)-1-oxopropan-2-yl)amino)-1-oxopropan-2-yl)-4-hydroxycyclohexanecarboxamide] showed an IC50 [1] of 1960 nM, an IC50 [2, 3] of 38.7 nM and a solubility (Solubility pH 7) of 2150 µg/mL (≈ 3.79 mM).

In the case of COc1ccc(C[C@H](NC(=O)[C@H](CO)NC(=O)CN2CCOCC2)C(=O)N[C@@H](CC2=CCCCC2)C(=O)[C@@]2(C)CO2)cc1 [Compound C-1104, (S)-N-((S)-3-(cyclohex-1-en-1-yl)-1-((R)-2-methyloxiran-2-yl)-1-oxopropan-2-yl)-2-((S)-3-hydroxy-2-(2-morpholinoacetamido)propanamido)-3-(4-methoxyphenyl)propanamide], the IC50 [1] is reported as 2210 nM, the IC50 [2, 3] is reported as 72.4 nM and the solubility (Solubility pH 7) is reported as 3270 µg/mL (≈ 5.44 mM).

In the case of C[C@@H](NC(=O)[C@H]1CC[C@H](O)CC1)C(=O)N[C@@H](Cc1ccc2[nH]cnc2c1)C(=O)N[C@@H](CC1CCCC1)C(=O)[C@@]1(C)CO1 [Compound C-1105, (1r,4R)-N-((R)-1-(((S)-3-(1H-benzo[d]imidazol-5-yl)-1-(((S)-3-cyclopentyl-1-((R)-2-methyloxiran-2-yl)-1-oxopropan-2-yl)amino)-1-oxopropan-2-yl)amino)-1-oxopropan-2-yl)-4-hydroxycyclohexanecarboxamide], the IC50 [1] is reported as 3230 nM, the IC50 [2, 3] is reported as 49.5 nM and the solubility (Solubility pH 7) is reported as 5690 µg/mL (≈ 9.79 mM).

CC[C@H](NC(=O)CN1CCOCC1)C(=O)N[C@@H](Cc1ccc(OC)cc1)C(=O)N[C@@H](CC1CCCC1)C(=O)[C@@]1(C)CO1 [Compound C-1106, (S)-N-((S)-1-(((S)-3-cyclopentyl-1-((R)-2-methyloxiran-2-yl)-1-oxopropan-2-yl)amino)-3-(4-methoxyphenyl)-1-oxopropan-2-yl)-2-(2-morpholinoacetamido)butanamide] gave an IC50 [1] of 284 nM, an IC50 [2, 3] of 49.8 nM and a solubility (Solubility pH 7) of 960 µg/mL (≈ 1.64 mM).

In the case of COc1ccc(C[C@H](NC(=O)[C@H](CO)NC(=O)CN2CCOCC2)C(=O)N[C@@H](CC2=CCCCC2)C(=O)[C@@]2(C)CO2)cc1O [Compound C-1109, (S)-N-((S)-3-(Cyclohex-1-en-1-yl)-1-((R)-2-methyloxiran-2-yl)-1-oxopropan-2-yl)-2-((S)-3-hydroxy-2-(2-morpholinoacetamido)propanamido)-3-(3-hydroxy-4-methoxyphenyl)propanamide], the IC50 [1] is reported as 4090 nM, the IC50 [2, 3] is reported as 181 nM and the solubility (Solubility pH 7) is reported as 3820 µg/mL (≈ 6.2 mM).

Compound C[C@]1(C(=O)[C@H](CC2=CCCCC2)NC(=O)[C@H](Cc2ccc(S(C)(=O)=O)cc2)NC(=O)[C@H](CO)NC(=O)CN2CCOCC2)CO1 [Compound C-1110, (S)-N-((S)-3-(Cyclohex-1-en-1-yl)-1-((R)-2-methyloxiran-2-yl)-1-oxopropan-2-yl)-2-((S)-3-hydroxy-2-(2-morpholinoacetamido)propanamido)-3-(4-(methylsulfonyl)phenyl)propanamide] has an IC50 [1] of 4340 nM, an IC50 [2, 3] of 217 nM and a solubility (Solubility pH 7) of 8380 µg/mL (≈ 12.9 mM).

For COc1ccc([C@@H](O)[C@H](NC(=O)[C@H](CO)NC(=O)CN2CCOCC2)C(=O)N[C@@H](CC2=CCCCC2)C(=O)[C@@]2(C)CO2)cc1 [Compound C-1116, (2S,3R)-N-((S)-3-(Cyclohex-1-en-1-yl)-1-((R)-2-methyloxiran-2-yl)-1-oxopropan-2-yl)-3-hydroxy-2-((S)-3-hydroxy-2-(2-morpholinoacetamido)propanamido)-3-(4-methoxyphenyl)propanamide], the IC50 [1] was 2940 nM, the IC50 [2, 3] was 50.6 nM and the solubility (Solubility pH 7) was 8230 µg/mL (≈ 13.3 mM).

In the case of Cc1ccc(C[C@H](NC(=O)[C@H](C)NC(=O)CN2CCOCC2)C(=O)N[C@@H](CC2CCCC2)C(=O)[C@@]2(C)CO2)cc1O [Compound C-1117, (S)-N-((S)-3-Cyclopentyl-1-((R)-2-methyloxiran-2-yl)-1-oxopropan-2-yl)-3-(3-hydroxy-4-methylphenyl)-2-((S)-2-(2-morpholinoacetamido)propanamido)propanamide], the IC50 [1] is reported as 1100 nM, the IC50 [2, 3] is reported as 101 nM and the solubility (Solubility pH 7) is reported as 1560 µg/mL (≈ 2.73 mM).

In the case of COc1ccc(C[C@H](NC(=O)[C@H](C)NC(=O)CN2CCC(O)CC2)C(=O)N[C@@H](CC2=CCCC2)C(=O)[C@@]2(C)CO2)cc1 [Compound C-1118, (S)-N-((S)-3-(Cyclopent-1-en-1-yl)-1-((R)-2-methyloxiran-2-yl)-1-oxopropan-2-yl)-2-((S)-2-(2-(4-hydroxypiperidin-1-yl)acetamido)propanamido)-3-(4-methoxyphenyl)propanamide], the IC50 [1] is reported as 407 nM, the IC50 [2, 3] is reported as 43.8 nM and the solubility (Solubility pH 7) is reported as 6260 µg/mL (≈ 10.7 mM).

With C[C@H](NC(=O)CN1CCOCC1)C(=O)N[C@@H](Cc1cc[n+]([O-])cc1)C(=O)N[C@@H](CC1CCCC1)C(=O)[C@@]1(C)CO1 [Compound C-1119, 4-((S)-3-(((S)-3-cyclopentyl-1-((R)-2-methyloxiran-2-yl)-1-oxopropan-2-yl)amino)-2-((S)-2-(2-morpholinoacetamido)propanamido)-3-oxopropyl)pyridine 1-oxide] the IC50 [1] was 1390 nM, the IC50 [2, 3] was 833 nM and the solubility (Solubility pH 7) was 10600 µg/mL (≈ 18.9 mM).

With C[C@H](NC(=O)CN1CCOCC1)C(=O)N[C@@H](Cc1ccc(S(C)(=O)=O)cc1)C(=O)N[C@@H](CC1=CCCC1)C(=O)[C@@]1(C)CO1 [Compound C-1125, (S)-N-((S)-3-(cyclopent-1-en-1-yl)-1-((R)-2-methyloxiran-2-yl)-1-oxopropan-2-yl)-3-(4-(methylsulfonyl)phenyl)-2-((S)-2-(2-morpholinoacetamido)propanamido)propanamide] the IC50 [1] was 566 nM, the IC50 [2, 3] was 97.6 nM and the solubility (Solubility pH 7) was 7720 µg/mL (≈ 12.5 mM).

For COc1ccc(C[C@H](NC(=O)[C@H](C)NC(=O)CN2CCS(=O)(=O)CC2)C(=O)N[C@@H](CC2=CCCCC2)C(=O)[C@@]2(C)CO2)cc1 [Compound C-1127, (S)-N-((S)-3-(cyclohex-1-en-1-yl)-1-((R)-2-methyloxiran-2-yl)-1-oxopropan-2-yl)-2-((S)-2-(2-(1,1-dioxidothiomorpholino)acetamido)propanamido)-3-(4-methoxyphenyl) propanamide], the IC50 [1] was 4170 nM, the IC50 [2, 3] was 315 nM and the solubility (Solubility pH 7) was 1520 µg/mL (≈ 2.4 mM).

With Cc1ccc(C[C@H](NC(=O)[C@H](C)NC(=O)CN2CCOCC2)C(=O)N[C@@H](CC2=CCCC2)C(=O)[C@@]2(C)CO2)cc1O [Compound C-1129, (S)-N-((S)-3-(cyclopent-1-en-1-yl)-1-((R)-2-methyloxiran-2-yl)-1-oxopropan-2-yl)-3-(3-hydroxy-4-methylphenyl)-2-((S)-2-(2-morpholinoacetamido)propanamido) propanamide] the IC50 [1] was 793 nM, the IC50 [2, 3] was 76.4 nM and the solubility (Solubility pH 7) was 1760 µg/mL (≈ 3.08 mM).

For COc1ccc(C[C@H](NC(=O)[C@H](CC#N)NC(=O)CN2CCOCC2)C(=O)N[C@@H](CC2=CCCC2)C(=O)[C@@]2(C)CO2)cc1 [Compound C-1135, (S)-3-Cyano-N-((S)-1-(((S)-3-(cyclopent-1-en-1-yl)-1-((R)-2-methyloxiran-2-yl)-1-oxopropan-2-yl)amino)-3-(4-methoxyphenyl)-1-oxopropan-2-yl)-2-(2-morpholinoacetamido)propanamide], the IC50 [1] was 289 nM, the IC50 [2, 3] was 31 nM and the solubility (Solubility pH 7) was 1860 µg/mL (≈ 3.13 mM).

Work on CCc1ccc(C[C@H](NC(=O)[C@H](C)NC(=O)CN2CCOCC2)C(=O)N[C@@H](CC2=CCCC2)C(=O)[C@@]2(C)CO2)cc1O [Compound C-1136, (S)-N-((S)-3-(cyclopent-1-en-1-yl)-1-((R)-2-methyloxiran-2-yl)-1-oxopropan-2-yl)-3-(4-ethyl-3-hydroxyphenyl)-2-((S)-2-(2-morpholinoacetamido)propanamido)propanamide] yielded an IC50 [1] of 402 nM, an IC50 [2, 3] of 46.2 nM and a solubility (Solubility pH 7) of 54.4 µg/mL (≈ 0.093 mM).

In the case of COc1ccc(C[C@H](NC(=O)[C@@H](NC(=O)CN2CCOCC2)C2COC2)C(=O)N[C@@H](CC2=CCCCC2)C(=O)[C@@]2(C)CO2)cc1 [Compound C-1138, (S)-N-((S)-3-(Cyclohex-1-en-1-yl)-1-((R)-2-methyloxiran-2-yl)-1-oxopropan-2-yl)-3-(4-methoxyphenyl)-2-((S)-2-(2-morpholinoacetamido)-2-(oxetan-3-yl)acetamido)propanamide], the IC50 [1] is reported as 409 nM, the IC50 [2, 3] is reported as 45.3 nM and the solubility (Solubility pH 7) is reported as 2350 µg/mL (≈ 3.75 mM).

For COc1ccc([C@@H](O)[C@H](NC(=O)[C@H](CO)NC(=O)CN2CCOCC2)C(=O)N[C@@H](CC2=CCCC2)C(=O)[C@@]2(C)CO2)cc1 [Compound C-1144, (2S,3R)-N-((S)-3-(cyclopent-1-en-1-yl)-1-((R)-2-methyloxiran-2-yl)-1-oxopropan-2-yl)-3-hydroxy-2-((S)-3-hydroxy-2-(2-morpholinoacetamido)propanamido)-3-(4-methoxyphenyl)propanamide], the IC50 [1] was 266 nM, the IC50 [2, 3] was 20.1 nM and the solubility (Solubility pH 7) was > 10000 µg/mL.

COc1ccc(C[C@H](NC(=O)[C@@H](CO)NC(=O)CN2CCOCC2)C(=O)N[C@@H](Cc2ccccc2)C(=O)[C@@]2(C)CO2)cc1 [Compound C-1158] gave an IC50 [1, 4] of 874 nM, an IC50 [2, 5] of 161 nM and a solubility (Solubility pH 7) of 3030 µg/mL (≈ 5.08 mM).

For COc1ccc(C[C@H](NC(=O)[C@H](C)NC(=O)[C@H]2CCCN2C)C(=O)N[C@@H](Cc2ccccc2)C(=O)[C@@]2(C)CO2)cc1 [Compound C-1164], the IC50 [1, 4] was 581 nM, the IC50 [2, 5] was 82.1 nM and the solubility (Solubility pH 7) was 2670 µg/mL (≈ 4.72 mM).
